Measurements: US20250129430A1, “HIGH ATP-AFFINITY PROTEIN AS THERAPEUTIC TARGET FOR INTRACTABLE CANCER MOLECULAR SUBTYPES AND INHIBITOR THEREOF” (VeraVerse Co., Ltd., priority 2021, published 2025)

Legend:
Assay in all cases: Cell viability drug screen, 12-point dose-response AUC
Assay type in all cases: cell-based, human
FU97 = tested on: FU97; set-up: Average Area Under the Viability Curve (AUC), AUC norm value: scale not given here; conditions: FU97 cells, 72 hours
How it was run: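 Trapezoidal AUC of a 12-point, DMSO-normalized dose-response curve. Luminescent viability was measured after 72 h of exposure at 37° C to half-log serial dilutions (0.5% DMSO control), dosed 24 h after plating FU97 cells at 5×10^3 per well.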

YCC11 = conditions: 72 hours; for Average Area Under the Viability Curve (AUC), AUC norm value: YCC11 cells (SEM subtype)
How it was run: (§1)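 Twelve half-log concentrations per compound were tested on gastric cancer cells with an EMT phenotype (5×10^3/well, dosed 24 h post-seeding). Viability after 72 h was quantified via luminescence relative to 0.5% DMSO, and repeats were averaged.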

SNU620 = SNU620 cells, 72 hours
How it was run: as §1

NCC20 = NCC20 cells, 72 hours
How it was run: as §1

AGS = conditions: 72 hours; for Average Area Under the Viability Curve (AUC), AUC norm value: AGS cells (non-SEM subtype)
How it was run: (§2)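 Each cell line receives a twelve-point half-log titration of drug beginning 24 h after plating 5×10^3 cells per well. Following 72 h culture at 37 °C, luminescent signal is recorded and expressed versus vehicle. AUC is derived by the trapezoidal method.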

SNU1750 = conditions: 72 hours; for Average Area Under the Viability Curve (AUC), AUC norm value: SNU1750 cells (SEM subtype)
How it was run: as §1

NCI_N87 = NCI_N87 cells, 72 hours
How it was run: as §1

MKN1 = MKN1 cells, 72 hours
How it was run: as §1

SNU719 = SNU719 cells, 72 hours
How it was run: as §2

SK4 = conditions: 72 hours; for Average Area Under the Viability Curve (AUC), AUC norm value: SK4 cells (SEM subtype)
How it was run: as §1

SNU484 = conditions: 72 hours; for Average Area Under the Viability Curve (AUC), AUC norm value: SNU484 cells (SEM subtype)
How it was run: as §1

SNU668 = conditions: 72 hours; for Average Area Under the Viability Curve (AUC), AUC norm value: SNU668 cells (SEM subtype)
How it was run: as §1

YCC2 = YCC2 cells, 72 hours
How it was run: as §1

MKN74 = MKN74 cells, 72 hours
How it was run: as §2

SNU1967 = SNU1967 cells, 72 hours
How it was run: as §1

SNU638 = SNU638 cells, 72 hours
How it was run: as §1

SNU16 = SNU16 cells, 72 hours
How it was run: as §1

SNU1 = SNU1 cells, 72 hours
How it was run: as §1

NCC19 = NCC19 cells, 72 hours
How it was run: as §1

KATO3 = KATO3 cells, 72 hours
How it was run: as §1

SNU216 = conditions: 72 hours; for Average Area Under the Viability Curve (AUC), AUC norm value: SNU216 cells (non-SEM subtype)
How it was run: as §2

OCUM1 = OCUM1 cells, 72 hours
How it was run: as §1

SNU601 = SNU601 cells, 72 hours
How it was run: as §1

MKN28 = MKN28 cells, 72 hours
How it was run: as §1

Hs746T = conditions: 72 hours; for Average Area Under the Viability Curve (AUC), AUC norm value: Hs746T cells (SEM subtype)
How it was run: as §1

NCC24 = NCC24 cells, 72 hours
How it was run: as §1

NCC59 = NCC59 cells, 72 hours
How it was run: as §1

YCC3 = YCC3 cells, 72 hours
How it was run: as §1

MKN45 = conditions: 72 hours; for Average Area Under the Viability Curve (AUC), AUC norm value: MKN45 cells (non-SEM subtype)
How it was run: as §2

SMILES: CC[C@@]1(O)C(=O)OCc2c1cc1n(c2=O)Cc2cc3ccccc3nc2-1 [Camptothecin]
- Average Area Under the Viability Curve (AUC), AUC norm value (FU97): 1.097
- Average Area Under the Viability Curve (AUC), AUC norm value (YCC11): −0.5718
- Average Area Under the Viability Curve (AUC), AUC norm value (SNU620): −1.867
- Average Area Under the Viability Curve (AUC), AUC norm value (NCC20): −1.829
- Average Area Under the Viability Curve (AUC), AUC norm value (AGS): −1.989
- Average Area Under the Viability Curve (AUC), AUC norm value (SNU1750): 0.02348
- Average Area Under the Viability Curve (AUC), AUC norm value (NCI_N87): 0.7261
- Average Area Under the Viability Curve (AUC), AUC norm value (MKN1): −0.642
- Average Area Under the Viability Curve (AUC), AUC norm value (SNU719): 3.079
- Average Area Under the Viability Curve (AUC), AUC norm value (SK4): −0.8823
- Average Area Under the Viability Curve (AUC), AUC norm value (SNU484): 1.047
- Average Area Under the Viability Curve (AUC), AUC norm value (SNU668): −1.202
- Average Area Under the Viability Curve (AUC), AUC norm value (YCC2): 0
- Average Area Under the Viability Curve (AUC), AUC norm value (MKN74): −0.08807
- Average Area Under the Viability Curve (AUC), AUC norm value (SNU1967): −1.86
- Average Area Under the Viability Curve (AUC), AUC norm value (SNU638): −0.9365
- Average Area Under the Viability Curve (AUC), AUC norm value (SNU16): −1.529
- Average Area Under the Viability Curve (AUC), AUC norm value (SNU1): −2.182
- Average Area Under the Viability Curve (AUC), AUC norm value (NCC19): 0.9854
- Average Area Under the Viability Curve (AUC), AUC norm value (KATO3): 4.769
- Average Area Under the Viability Curve (AUC), AUC norm value (SNU216): 1.3094
- Average Area Under the Viability Curve (AUC), AUC norm value (OCUM1): −0.5033
- Average Area Under the Viability Curve (AUC), AUC norm value (SNU601): −1.853
- Average Area Under the Viability Curve (AUC), AUC norm value (MKN28): 0.3881
- Average Area Under the Viability Curve (AUC), AUC norm value (Hs746T): 0.3026
- Average Area Under the Viability Curve (AUC), AUC norm value (NCC24): 0.5273
- Average Area Under the Viability Curve (AUC), AUC norm value (NCC59): 1.208
- Average Area Under the Viability Curve (AUC), AUC norm value (YCC3): 1.3493
- Average Area Under the Viability Curve (AUC), AUC norm value (MKN45): 0.1203

SMILES: CC[C@@H]1C(=O)N(C)c2cnc(Nc3ccc(C(=O)N[C@H]4CC[C@H](N5CCN(CC6CC6)CC5)CC4)cc3OC)nc2N1C(C)C [BI6727 (Volasertib), Volasertib]
- Average Area Under the Viability Curve (AUC), AUC norm value (FU97): 0.3078
- Average Area Under the Viability Curve (AUC), AUC norm value (YCC11): −0.7997
- Average Area Under the Viability Curve (AUC), AUC norm value (SNU620): −0.4098
- Average Area Under the Viability Curve (AUC), AUC norm value (NCC20): 0.5594
- Average Area Under the Viability Curve (AUC), AUC norm value (AGS): −1.0975
- Average Area Under the Viability Curve (AUC), AUC norm value (SNU1750): −0.5962
- Average Area Under the Viability Curve (AUC), AUC norm value (NCI_N87): −0.3929
- Average Area Under the Viability Curve (AUC), AUC norm value (MKN1): −0.162
- Average Area Under the Viability Curve (AUC), AUC norm value (SNU719): 3.74
- Average Area Under the Viability Curve (AUC), AUC norm value (SK4): −0.9263
- Average Area Under the Viability Curve (AUC), AUC norm value (SNU484): −0.03282
- Average Area Under the Viability Curve (AUC), AUC norm value (SNU668): 0.1516
- Average Area Under the Viability Curve (AUC), AUC norm value (YCC2): −0.09826
- Average Area Under the Viability Curve (AUC), AUC norm value (MKN74): −0.01134
- Average Area Under the Viability Curve (AUC), AUC norm value (SNU1967): −0.1645
- Average Area Under the Viability Curve (AUC), AUC norm value (SNU638): 0.3626
- Average Area Under the Viability Curve (AUC), AUC norm value (SNU16): 0
- Average Area Under the Viability Curve (AUC), AUC norm value (SNU1): −0.487
- Average Area Under the Viability Curve (AUC), AUC norm value (NCC19): 3.256
- Average Area Under the Viability Curve (AUC), AUC norm value (KATO3): 3.3921
- Average Area Under the Viability Curve (AUC), AUC norm value (SNU216): 1.868
- Average Area Under the Viability Curve (AUC), AUC norm value (OCUM1): 2.405
- Average Area Under the Viability Curve (AUC), AUC norm value (SNU601): 0.4757
- Average Area Under the Viability Curve (AUC), AUC norm value (MKN28): −1.335
- Average Area Under the Viability Curve (AUC), AUC norm value (Hs746T): 2.378
- Average Area Under the Viability Curve (AUC), AUC norm value (NCC24): −0.9502
- Average Area Under the Viability Curve (AUC), AUC norm value (NCC59): 3.198
- Average Area Under the Viability Curve (AUC), AUC norm value (YCC3): 3.488
- Average Area Under the Viability Curve (AUC), AUC norm value (MKN45): 0.5875

SMILES: C#Cc1cccc(Nc2ncnc3cc(OC)c(OCCCCCCC(=O)NO)cc23)c1 [CUDC-101]
- area under the viability curve (AUC), normalized (FU97; 12-point dose-response): −0.4688
- area under the viability curve (AUC), normalized (YCC11; YCC11 cells, 12-point dose-response): 0.3451
- area under the viability curve (AUC), normalized (SNU620; 12-point dose-response): −0.4289
- area under the viability curve (AUC), normalized (NCC20; 12-point dose-response): −0.7885
- area under the viability curve (AUC), normalized (AGS; AGS cells, 12-point dose-response): −0.9569
- area under the viability curve (AUC), normalized (SNU1750; SNU1750 cells, 12-point dose-response): −1.203
- area under the viability curve (AUC), normalized (NCI_N87; 12-point dose-response): −0.4217
- area under the viability curve (AUC), normalized (MKN1; 12-point dose-response): 0.6267
- area under the viability curve (AUC), normalized (SNU719; 12-point dose-response): 0.9348
- area under the viability curve (AUC), normalized (SK4; SK4 cells, 12-point dose-response): −0.04342
- area under the viability curve (AUC), normalized (SNU484; SNU484 cells, 12-point dose-response): 0.5831
- area under the viability curve (AUC), normalized (SNU668; SNU668 cells, 12-point dose-response): 0.9508
- area under the viability curve (AUC), normalized (YCC2; 12-point dose-response): −0.1991
- area under the viability curve (AUC), normalized (MKN74; 12-point dose-response): −0.5407
- area under the viability curve (AUC), normalized (SNU1967; 12-point dose-response): −0.301
- area under the viability curve (AUC), normalized (SNU638; 12-point dose-response): −0.8807
- area under the viability curve (AUC), normalized (SNU16; 12-point dose-response): 0.427
- area under the viability curve (AUC), normalized (SNU1; 12-point dose-response): 0
- area under the viability curve (AUC), normalized (NCC19; 12-point dose-response): 1.187
- area under the viability curve (AUC), normalized (KATO3; 12-point dose-response): 0.683
- area under the viability curve (AUC), normalized (SNU216; SNU216 cells, 12-point dose-response): −0.5746
- area under the viability curve (AUC), normalized (OCUM1; 12-point dose-response): 0.3332
- area under the viability curve (AUC), normalized (SNU601; 12-point dose-response): −0.1084
- area under the viability curve (AUC), normalized (MKN28; 12-point dose-response): −0.7663
- area under the viability curve (AUC), normalized (Hs746T; Hs746T cells, 12-point dose-response): 0.4609
- area under the viability curve (AUC), normalized (NCC24; 12-point dose-response): 0.1814
- area under the viability curve (AUC), normalized (NCC59; 12-point dose-response): 1.8155
- area under the viability curve (AUC), normalized (YCC3; 12-point dose-response): 0.7562
- area under the viability curve (AUC), normalized (MKN45; MKN45 cells, 12-point dose-response): 1.5
